This is an account of results in patent US12398154B2, “Azaquinazoline pan-KRas inhibitors” (Mirati Therapeutics, Inc., priority 2020, dated 2025).

A value given as a limit tells only on which side of the number the result lay.

The IC50 is the concentration that gives 50% inhibition.

The target of experiment [1] is T1, KRas G13D (Homo sapiens, UniProt P01116, G13D).
T1 construct: Biotinylated KRas (corresponding to amino acids 1-169, produced at Accelegan Inc.); biotin (biotinylated); purchased Accelegan Inc
T1 sequence (P01116 1-169 isoform P01116-2 G13D): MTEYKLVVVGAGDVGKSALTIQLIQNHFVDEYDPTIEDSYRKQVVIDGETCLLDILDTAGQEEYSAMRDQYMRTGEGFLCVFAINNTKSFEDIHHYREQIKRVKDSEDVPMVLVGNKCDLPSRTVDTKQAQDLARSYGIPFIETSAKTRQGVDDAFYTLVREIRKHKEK
In words: KRas binding assay (TR-FRET displacement). (In TR-FRET formats the signal depends on donor and acceptor labels being close together.)
Method: (§1) The ability of a compound to bind to KRas was measured using a TR-FRET displacement assay. […] After a 60-minute incubation at room temperature, the reaction was measured using a BMG LABTECH CLARIO star Plus via TR-FRET. […] The POC values were fit to a 4-parameter IC50 equation and the IC50 value reported.

For experiment [2], the target named is KRas G12D (Homo sapiens, UniProt P01116, G12D). In words: biochemical.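 Note: TR-FRET displacement binding assay on KRas, read after a one-hour incubation at room temperature, IC50 fitted from percent-of-control values.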
Sequence of KRas G12D (P01116 1-169 isoform P01116-2 G12D): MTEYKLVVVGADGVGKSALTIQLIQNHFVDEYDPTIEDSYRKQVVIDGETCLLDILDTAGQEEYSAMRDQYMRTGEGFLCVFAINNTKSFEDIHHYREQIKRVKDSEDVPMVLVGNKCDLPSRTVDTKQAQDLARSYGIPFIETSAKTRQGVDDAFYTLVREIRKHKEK
Method: as §1
The target of experiment [3] is T2, KRas Q61H (Homo sapiens, UniProt P01116, Q61H).
T2 construct: Biotinylated KRas (corresponding to amino acids 1-169, produced at Accelegan Inc.); biotin (biotinylated); purchased Accelegan Inc
T2 sequence (P01116 1-169 isoform P01116-2 Q61H): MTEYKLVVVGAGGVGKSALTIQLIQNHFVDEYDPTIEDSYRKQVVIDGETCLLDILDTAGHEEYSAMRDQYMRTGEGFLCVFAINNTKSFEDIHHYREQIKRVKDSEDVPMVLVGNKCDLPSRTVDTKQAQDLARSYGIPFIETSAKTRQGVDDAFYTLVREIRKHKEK
Briefly: KRas binding assay (TR-FRET displacement).
Method: as §1

In experiment [4] the target is KRas G12C (Homo sapiens, UniProt P01116, G12C). Briefly: biochemical.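 Note: binding to KRas assessed by TR-FRET displacement after one hour incubation at room temperature, potency fitted from percent-of-control values.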
Sequence of KRas G12C (P01116 1-169 isoform P01116-2 G12C): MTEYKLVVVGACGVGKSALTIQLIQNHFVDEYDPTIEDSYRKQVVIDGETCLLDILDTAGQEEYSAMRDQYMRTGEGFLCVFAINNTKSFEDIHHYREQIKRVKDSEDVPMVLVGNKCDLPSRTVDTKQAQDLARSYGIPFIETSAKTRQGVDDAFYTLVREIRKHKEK
Method: as §1
For experiment [5], the target named is KRas G12R (Homo sapiens, UniProt P01116, G12R). In words: biochemical.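 Note: TR-FRET displacement assay of compound binding to KRas, read after one hour at room temperature, potency from a four-parameter fit of percent-of-control values.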
Sequence of KRas G12R (P01116 1-169 isoform P01116-2 G12R): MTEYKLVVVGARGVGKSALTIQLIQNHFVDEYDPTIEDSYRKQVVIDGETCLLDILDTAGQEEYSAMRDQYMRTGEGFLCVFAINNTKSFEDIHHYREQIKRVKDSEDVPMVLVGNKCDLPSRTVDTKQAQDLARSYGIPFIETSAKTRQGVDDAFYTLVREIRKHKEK
Method: as §1
For experiment [6], the target named is KRas G12S (Homo sapiens, UniProt P01116, G12S). Briefly: biochemical.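 Note: TR-FRET displacement binding to KRas, read after one hour incubation at room temperature, IC50 from four-parameter fit of percent of control.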
Sequence of KRas G12S (P01116 1-169 isoform P01116-2 G12S): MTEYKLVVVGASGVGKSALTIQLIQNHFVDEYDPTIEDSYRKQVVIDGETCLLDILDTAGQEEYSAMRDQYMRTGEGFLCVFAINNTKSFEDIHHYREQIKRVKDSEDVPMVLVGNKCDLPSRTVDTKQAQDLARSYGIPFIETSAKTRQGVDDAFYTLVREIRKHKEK
Method: as §1
Experiment [7] concerns the target KRas WT (Homo sapiens, UniProt P01116). Briefly: biochemical.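 Note: binding to KRas read as TR-FRET displacement after a one-hour room-temperature incubation, IC50 derived from percent-of-control values.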
Method: as §1
Experiment [8] has as its target KRas G12A (Homo sapiens, UniProt P01116, G12A). Briefly: biochemical.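 Note: binding to KRas measured by TR-FRET displacement after one hour at room temperature, IC50 from a four-parameter fit of percent-of-control values.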
Method: as §1
In experiment [9] the target is KRas G12V (Homo sapiens, UniProt P01116, G12V). In words: biochemical.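 Note: KRas binding measured by TR-FRET displacement at room temperature, IC50 fitted from percent of control values.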
Sequence of KRas G12V (P01116 1-169 isoform P01116-2 G12V): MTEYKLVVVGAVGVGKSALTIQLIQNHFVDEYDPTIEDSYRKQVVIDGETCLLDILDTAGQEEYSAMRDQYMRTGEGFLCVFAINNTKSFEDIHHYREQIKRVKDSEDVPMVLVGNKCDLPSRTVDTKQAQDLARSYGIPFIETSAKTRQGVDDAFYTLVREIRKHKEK
Method: as §1

Sequence of KRas G12A (P01116 1-169 isoform P01116-2 G12A): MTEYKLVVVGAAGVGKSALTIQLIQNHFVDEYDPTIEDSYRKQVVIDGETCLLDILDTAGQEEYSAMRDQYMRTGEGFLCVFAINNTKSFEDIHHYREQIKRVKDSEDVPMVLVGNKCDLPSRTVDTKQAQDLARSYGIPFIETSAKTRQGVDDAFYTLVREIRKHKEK
Sequence of KRas WT (P01116 1-169 isoform P01116-2): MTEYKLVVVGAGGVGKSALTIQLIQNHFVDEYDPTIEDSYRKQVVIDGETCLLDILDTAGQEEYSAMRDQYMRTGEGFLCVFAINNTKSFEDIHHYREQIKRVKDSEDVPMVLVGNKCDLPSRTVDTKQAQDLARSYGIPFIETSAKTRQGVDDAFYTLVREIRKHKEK

On to `Fc1c(-c2cccc3cccc(F)c23)ncc2c(N3CC=CCC3)nc(OCC34CCCN3CCC4)nc12` [Example 123, 4-(3,6-dihydropyridin-1 (2H)-yl)-8-fluoro-7-(8-fluoronaphthalen-1-yl)-2-((tetrahydro-1H-pyrrolizin-7a(5H)-yl)methoxy)pyrido[4,3-d]pyrimidine], for which the IC50 in [1] was 3480 nM; in experiment [2], 4.44 µM; in experiment [3], 4980 nM; in [4] it was 2.34 µM; in experiment [5] it was 7.5 µM; in experiment [6], 2.76 µM. Further, the results for the concentration for half-maximal inhibition (IC50) in experiment [7], in experiment [8] and in [9] were 3.5 µM, 3.18 µM and 3.19 µM, respectively.

As to `Fc1c(-c2cccc3cccc(F)c23)ncc2c(NCCCc3cccnc3)nc(OCC34CCCN3CCC4)nc12` [Example 124, 8-fluoro-7-(8-fluoronaphthalen-1-yl)-N-(3-(pyridin-3-yl)propyl)-2-((tetrahydro-1H-pyrrolizin-7a(5H)-yl)methoxy)pyrido[4,3-d]pyrimidin-4-amine], the IC50 amounted to 7820 nM in [1]; 12.6 µM in experiment [2]; 7140 nM in experiment [3]; 1.48 µM in experiment [4]; 2.19 µM in [5]; 3.87 µM in experiment [6]. Moreover, the figures for the IC50 in experiment [7], in experiment [8] and in experiment [9] were 7.02 µM, 2.07 µM and 1.51 µM, respectively.

Take `Fc1c(-c2cccc3cccc(F)c23)ncc2c(NCc3ccc4nonc4c3)nc(OCC34CCCN3CCC4)nc12` [Example 125, N-(benzo[c][1,2,5]oxadiazol-5-ylmethyl)-8-fluoro-7-(8-fluoronaphthalen-1-yl)-2-((tetrahydro-1H-pyrrolizin-7a(5H)-yl)methoxy)pyrido[4,3-d]pyrimidin-4-amine]: the IC50 was determined as 29100 nM in experiment [1]; 60.4 µM in experiment [2]; 39000 nM in experiment [3]; 4.25 µM in [4]; 4.39 µM in experiment [5]; 7.42 µM in [6]. The results for the IC50 in experiment [7], in experiment [8] and in experiment [9] were 13.3 µM, 5.52 µM and 3.92 µM, respectively.

Turning to `Nc1cc2n(n1)CCN(c1nc(OCC34CCCN3CCC4)nc3c(F)c(-c4cccc5cccc(F)c45)ncc13)C2` [Example 126, 5-(8-fluoro-7-(8-fluoronaphthalen-1-yl)-2-((tetrahydro-1H-pyrrolizin-7a(5H)-yl)methoxy)pyrido[4,3-d]pyrimidin-4-yl)-4,5,6,7-tetrahydropyrazolo[1,5-a]pyrazin-2-amine], the IC50 in experiment [1] was 7290 nM; in experiment [2], 67.3 µM; in [3], 7500 nM; in experiment [4], 9.29 µM; in experiment [5] it was 18.4 µM; in experiment [6] it was 3.97 µM. For the same molecule, the figures for the IC50 in experiment [7], in [8] and in experiment [9] were 5.97 µM, 13.8 µM and no less than 100 µM, respectively.

For the molecule `O=S1(=O)CC(CNc2nc(OCC34CCCN3CCC4)nc3c(F)c(-c4cccc5cccc(F)c45)ncc23)C1` [Example 127, 3-(((8-fluoro-7-(8-fluoronaphthalen-1-yl)-2-((tetrahydro-1H-pyrrolizin-7a(5H)-yl)methoxy)pyrido[4,3-d]pyrimidin-4-yl)amino)methyl)thietane 1,1-dioxide], the IC50 in experiment [1] was 8700 nM; in [2], 25.1 µM; in experiment [3], 11100 nM; in [4], 2.19 µM; in experiment [5], 2.58 µM; in [6], 1.72 µM. Moreover, the IC50 amounted to 4.22 µM in experiment [7], 2.68 µM in [8] and 1.7 µM in experiment [9].

With `O=S1(=O)CC[C@H](CNc2nc(OCC34CCCN3CCC4)nc3c(F)c(-c4cccc5cccc(F)c45)ncc23)N1` [Example 128, (R)-3-(((8-fluoro-7-(8-fluoronaphthalen-1-yl)-2-((tetrahydro-1H-pyrrolizin-7a(5H)-yl)methoxy)pyrido[4,3-d]pyrimidin-4-yl)amino)methyl)isothiazolidine 1,1-dioxide], the IC50 in [1] was 13400 nM; in [2] it was 49 µM; in [3], 18400 nM; in experiment [4], 9.57 µM; in [5] it was 4.14 µM; in experiment [6], 7.8 µM. The IC50 in experiment [7] was determined as 12.8 µM; in [8], 11.5 µM; in experiment [9], 8.79 µM.

Consider `OC1CCCN(c2nc(OCC34CCCN3CCC4)nc3c(F)c(-c4cccc5cccc(F)c45)ncc23)CC1` (stereo not drawn) [Example 129, 1-(8-fluoro-7-(8-fluoronaphthalen-1-yl)-2-((tetrahydro-1H-pyrrolizin-7a(5H)-yl)methoxy)pyrido[4,3-d]pyrimidin-4-yl)azepan-4-ol], for which the IC50 is 2500 nM in experiment [1]; 2.26 µM in experiment [2]; 4360 nM in [3]; 2.53 µM in experiment [4]; 4.43 µM in experiment [5]; 2.79 µM in experiment [6]. For the same molecule, the IC50 in [7] came out at 3.11 µM; in experiment [8], 2.69 µM; in experiment [9], 2.79 µM.

In the case of `OCC1CCCCN(c2nc(OCC34CCCN3CCC4)nc3c(F)c(-c4cccc5cccc(F)c45)ncc23)C1` (stereo not drawn) [Example 130, (1-(8-fluoro-7-(8-fluoronaphthalen-1-yl)-2-((tetrahydro-1H-pyrrolizin-7a(5H)-yl)methoxy)pyrido[4,3-d]pyrimidin-4-yl)azepan-3-yl)methanol], the IC50 stood at 25800 nM in [1]; 8.36 µM in experiment [2]; 21900 nM in [3]; 9.08 µM in experiment [4]; 18.3 µM in [5]; 14.2 µM in [6]. The IC50 in [7] is 11.4 µM; in experiment [8], 10.5 µM; in experiment [9], 10.8 µM.

With `Fc1c(-c2cccc3cccc(F)c23)ncc2c(N3CCCC(c4cc[nH]n4)C3)nc(OCC34CCCN3CCC4)nc12` (stereo not drawn) [Example 131, 4-(3-(1H-pyrazol-3-yl)piperidin-1-yl)-8-fluoro-7-(8-fluoronaphthalen-1-yl)-2-((tetrahydro-1H-pyrrolizin-7a(5H)-yl)methoxy)pyrido[4,3-d]pyrimidine], the IC50 in experiment [1] was found to be 6560 nM; in [2], 14.6 µM; in [3], 7690 nM; in experiment [4], 3.45 µM; in experiment [5] it was 2.79 µM; in experiment [6], 9.29 µM. The IC50 came out at 8.21 µM in [7], 4.46 µM in experiment [8] and 8.3 µM in experiment [9].

`Cc1cc2[nH]ncc2c(-c2ncc3c(N4CCCC(C)(O)C4)nc(OCC45CCCN4CCC5)nc3c2F)c1C1CC1` (stereo not drawn) [Example 144, 1-(7-(5-cyclopropyl-6-methyl-1H-indazol-4-yl)-8-fluoro-2-((tetrahydro-1H-pyrrolizin-7a(5H)-yl)methoxy)pyrido[4,3-d]pyrimidin-4-yl)-3-methylpiperidin-3-ol]: the IC50 in [1] turned out to be 60 nM; in experiment [2], 0.043 µM; in [3], 82 nM; in experiment [4], 0.077 µM; in experiment [5], 0.096 µM; in experiment [6] it was 0.065 µM. Also, the IC50 in experiment [7] was determined as 0.074 µM; in [8], 0.071 µM; in [9], 0.048 µM.

In the case of `O=C1NC(=O)C2(CCCN(c3nc(OCC45CCCN4CCC5)nc4c(F)c(-c5cccc6cccc(F)c56)ncc34)C2)N1` (stereo not drawn) [Example 158, 7-(8-fluoro-7-(8-fluoronaphthalen-1-yl)-2-((hexahydro-1H-pyrrolizin-7a-yl)methoxy)pyrido[4,3-d]pyrimidin-4-yl)-1,3,7-triazaspiro[4.5]decane-2,4-dione], the IC50 was found to be 83 nM in experiment [1]; 0.152 µM in [2]; 102 nM in [3]; 0.041 µM in experiment [4]; 0.081 µM in [5]; 0.069 µM in experiment [6]. The IC50 in experiment [7] was 0.103 µM; in experiment [8], 0.085 µM; in experiment [9] it was 0.078 µM.

Take `CCc1cccc2cccc(-c3ncc4c(NCc5cccnc5N)nc(OCC56CCCN5CCC6)nc4c3F)c12` [Example 204, N-((2-aminopyridin-3-yl)methyl)-7-(8-ethylnaphthalen-1-yl)-8-fluoro-2-((hexahydro-1H-pyrrolizin-7a-yl)methoxy)pyrido[4,3-d]pyrimidin-4-amine]: the IC50 came to 317 nM in experiment [1]; 1.29 µM in experiment [2]; 283 nM in experiment [3]; 0.02 µM in [4]; 0.021 µM in [5]; 0.051 µM in experiment [6]. Also, the IC50 came out at 0.233 µM in [7], 0.038 µM in [8] and 0.043 µM in experiment [9].

Consider `CCc1cccc2cccc(-c3ncc4c(NCc5c[nH]c6ncccc56)nc(OCC56CCCN5CCC6)nc4c3F)c12` [Example 205, N-((1H-pyrrolo[2,3-b]pyridin-3-yl)methyl)-7-(8-ethylnaphthalen-1-yl)-8-fluoro-2-((hexahydro-1H-pyrrolizin-7a-yl)methoxy)pyrido[4,3-d]pyrimidin-4-amine], for which the IC50 is 69 nM in experiment [1]; 0.307 µM in experiment [2]; 95 nM in experiment [3]; 0.01 µM in [4]; 0.007 µM in experiment [5]; 0.016 µM in [6]. In addition, the IC50 in experiment [7] worked out at 0.08 µM; in experiment [8], 0.013 µM; in experiment [9], 0.008 µM.
